Source: ChEMBL document CHEMBL4130345, “Discovery of a series of dihydroquinoxalin-2(1H)-ones as selective BET inhibitors from a dual PLK1-BRD4 inhibitor” (Eur J Med Chem, 2017)
Activity calls are given as the source filed them. The rule behind the calls is not given here.

How the values were obtained:
[1] = target: CREB-binding protein (Homo sapiens) (UniProt Q92793); test: Inhibition of human partial length CREBBP (R1081 to G1197 residues) expressed in Escherichia coli BL21 assessed as residual activity at 1 uM after 1 hr by qPCR method relative to control
Sequence of CREB-binding protein (Homo sapiens) (Q92793 2-2442 limits assumed): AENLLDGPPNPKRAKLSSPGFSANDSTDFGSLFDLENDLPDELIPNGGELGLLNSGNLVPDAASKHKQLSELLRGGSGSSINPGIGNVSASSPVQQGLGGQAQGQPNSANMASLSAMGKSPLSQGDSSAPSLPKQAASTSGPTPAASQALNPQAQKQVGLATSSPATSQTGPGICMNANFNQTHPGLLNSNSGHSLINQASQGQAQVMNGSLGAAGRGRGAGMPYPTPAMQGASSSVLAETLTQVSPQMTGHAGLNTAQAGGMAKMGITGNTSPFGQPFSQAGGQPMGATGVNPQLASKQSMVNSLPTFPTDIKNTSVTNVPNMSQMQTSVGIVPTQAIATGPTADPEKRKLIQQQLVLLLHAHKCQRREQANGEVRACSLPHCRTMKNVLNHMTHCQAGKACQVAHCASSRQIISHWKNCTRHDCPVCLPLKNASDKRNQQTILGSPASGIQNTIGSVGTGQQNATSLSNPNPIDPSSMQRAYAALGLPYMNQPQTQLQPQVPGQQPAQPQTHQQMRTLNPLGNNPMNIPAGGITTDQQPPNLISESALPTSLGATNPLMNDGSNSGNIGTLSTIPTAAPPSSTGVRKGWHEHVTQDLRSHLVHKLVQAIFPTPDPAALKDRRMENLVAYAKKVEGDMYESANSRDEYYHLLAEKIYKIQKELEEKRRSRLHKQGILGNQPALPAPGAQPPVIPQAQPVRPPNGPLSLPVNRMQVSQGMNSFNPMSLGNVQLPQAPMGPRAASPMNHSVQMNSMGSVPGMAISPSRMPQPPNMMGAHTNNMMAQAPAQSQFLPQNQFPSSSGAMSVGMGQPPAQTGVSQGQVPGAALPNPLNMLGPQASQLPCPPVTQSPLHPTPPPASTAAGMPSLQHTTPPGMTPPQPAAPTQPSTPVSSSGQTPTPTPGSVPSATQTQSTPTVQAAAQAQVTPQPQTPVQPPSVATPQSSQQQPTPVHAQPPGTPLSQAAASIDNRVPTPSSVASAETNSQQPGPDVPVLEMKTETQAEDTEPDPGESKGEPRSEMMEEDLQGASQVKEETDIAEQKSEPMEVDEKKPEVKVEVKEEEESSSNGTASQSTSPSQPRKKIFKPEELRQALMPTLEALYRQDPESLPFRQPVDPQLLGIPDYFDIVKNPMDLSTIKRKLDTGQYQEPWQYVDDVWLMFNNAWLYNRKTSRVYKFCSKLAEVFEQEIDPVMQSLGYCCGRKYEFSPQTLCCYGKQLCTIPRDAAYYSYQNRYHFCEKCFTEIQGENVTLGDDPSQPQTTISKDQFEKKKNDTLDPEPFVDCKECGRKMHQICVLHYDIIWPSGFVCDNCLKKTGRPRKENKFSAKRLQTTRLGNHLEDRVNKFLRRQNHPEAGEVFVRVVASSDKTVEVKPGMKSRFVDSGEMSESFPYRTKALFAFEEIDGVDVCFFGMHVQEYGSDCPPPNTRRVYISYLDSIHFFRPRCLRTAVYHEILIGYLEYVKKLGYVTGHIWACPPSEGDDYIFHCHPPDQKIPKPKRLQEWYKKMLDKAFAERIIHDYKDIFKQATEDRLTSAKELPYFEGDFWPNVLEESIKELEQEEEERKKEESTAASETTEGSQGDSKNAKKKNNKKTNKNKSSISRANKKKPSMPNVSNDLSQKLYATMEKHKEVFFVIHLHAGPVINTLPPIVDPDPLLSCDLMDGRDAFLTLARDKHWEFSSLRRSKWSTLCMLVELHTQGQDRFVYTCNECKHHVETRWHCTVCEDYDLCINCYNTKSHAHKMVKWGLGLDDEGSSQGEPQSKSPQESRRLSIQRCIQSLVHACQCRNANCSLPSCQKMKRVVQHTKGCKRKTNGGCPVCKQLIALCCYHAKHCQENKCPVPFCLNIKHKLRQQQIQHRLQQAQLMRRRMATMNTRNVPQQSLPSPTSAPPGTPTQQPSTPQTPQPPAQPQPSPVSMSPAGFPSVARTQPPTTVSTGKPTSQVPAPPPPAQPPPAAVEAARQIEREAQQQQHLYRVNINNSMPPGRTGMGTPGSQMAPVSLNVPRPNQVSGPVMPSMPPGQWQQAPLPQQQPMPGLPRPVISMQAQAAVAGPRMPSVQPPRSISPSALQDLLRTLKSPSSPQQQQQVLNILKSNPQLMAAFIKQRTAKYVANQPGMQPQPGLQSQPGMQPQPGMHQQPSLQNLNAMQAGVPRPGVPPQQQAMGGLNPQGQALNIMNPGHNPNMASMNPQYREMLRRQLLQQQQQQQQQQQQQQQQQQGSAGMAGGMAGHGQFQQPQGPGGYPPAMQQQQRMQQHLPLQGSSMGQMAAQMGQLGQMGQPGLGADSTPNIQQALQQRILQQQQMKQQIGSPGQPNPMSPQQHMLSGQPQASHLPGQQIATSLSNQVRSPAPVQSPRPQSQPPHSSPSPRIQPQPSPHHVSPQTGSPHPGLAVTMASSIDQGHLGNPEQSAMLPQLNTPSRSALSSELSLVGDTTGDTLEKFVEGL

[2] = target: Bromodomain testis-specific protein (Homo sapiens) (UniProt Q58F21); test: Inhibition of human partial length BRDT bromodomain 1 (N21 to E137 residues) expressed in Escherichia coli BL21 assessed as residual activity at 1 uM after 1 hr by qPCR method relative to control
[3] = target: T1, Bromodomain-containing protein 4 (Homo sapiens, UniProt O60885); test: Inhibition of human partial length BRD4 bromodomain 2 long isoform (K333 to E460 residues) expressed in Escherichia coli BL21 assessed as residual activity at 1 uM after 1 hr by qPCR method relative to control
[4] = Cmax in ICR (CD-1) mouse at 10 mg/kg, po; assay type: ADME, organism-based; design: dose 10 mg/kg, route oral; conditions: in vivo
[5] = target: T1, Bromodomain-containing protein 4; test: Inhibition of BRD4 in human TY82 cells assessed as downregulation of c-Myc mRNA expression after 24 hrs by RT-qPCR method; assay type: cell-based
[6] = target: T1, Bromodomain-containing protein 4; test: Inhibition of BRD4 in human TY82 cells assessed as downregulation of c-Myc protein expression at 0.2 to 1 uM after 24 hrs by Western blot method; assay type: cell-based
[7] = target: Bromodomain-containing protein 9 (Homo sapiens) (UniProt Q9H8M2); test: Inhibition of human partial length BRD9 (R130 to V259 residues) expressed in Escherichia coli BL21 assessed as residual activity at 1 uM after 1 hr by qPCR method relative to control
Sequence of Bromodomain-containing protein 9 (Homo sapiens) (Q9H8M2 whole entry, the tested form may be a part): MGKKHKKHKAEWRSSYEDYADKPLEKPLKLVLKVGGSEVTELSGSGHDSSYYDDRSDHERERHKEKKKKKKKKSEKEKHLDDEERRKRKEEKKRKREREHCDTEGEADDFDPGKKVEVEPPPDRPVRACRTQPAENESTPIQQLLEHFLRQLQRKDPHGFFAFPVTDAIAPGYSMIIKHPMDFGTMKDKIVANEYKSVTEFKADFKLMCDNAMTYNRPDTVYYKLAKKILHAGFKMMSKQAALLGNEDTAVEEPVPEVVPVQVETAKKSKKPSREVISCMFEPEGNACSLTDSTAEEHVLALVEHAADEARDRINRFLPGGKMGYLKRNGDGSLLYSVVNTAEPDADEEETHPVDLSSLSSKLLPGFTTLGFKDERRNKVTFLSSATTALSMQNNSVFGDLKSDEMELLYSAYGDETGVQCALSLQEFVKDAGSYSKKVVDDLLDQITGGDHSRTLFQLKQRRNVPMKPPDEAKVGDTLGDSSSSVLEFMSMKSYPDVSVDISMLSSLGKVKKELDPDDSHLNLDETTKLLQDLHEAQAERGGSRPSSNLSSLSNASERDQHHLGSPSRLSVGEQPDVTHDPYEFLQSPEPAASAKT

[8] = target: Histone acetyltransferase KAT2B (Homo sapiens) (UniProt Q92831); test: Inhibition of human partial length PCAF (G715 to D831 residues) expressed in Escherichia coli BL21 assessed as residual activity at 1 uM after 1 hr by qPCR method relative to control
[9] = target: T1, Bromodomain-containing protein 4; test: Inhibition of JQ1-FITC binding to His6-tagged BRD4-BD1 (unknown origin) expressed in Escherichia coli BL21 (DE3)-codon plus-RIL cells incubated in dark for 4 hrs by fluorescence anisotropy assay
[10] = target: SWI/SNF-related matrix-associated actin-dependent regulator of chromatin subfamily A member 4 (Homo sapiens) (UniProt P51532); test: Inhibition of human partial length SMARCA4 (A1448 to S1575 residues) expressed in Escherichia coli BL21 assessed as residual activity at 1 uM after 1 hr by qPCR method relative to control
[11] = target: T1, Bromodomain-containing protein 4; test: Inhibition of BRD4 in human TY82 cells assessed as downregulation of c-Myc mRNA expression at 1 uM after 24 hrs by RT-qPCR method relative to control; assay type: cell-based
[12] = target: Protein polybromo-1 (Homo sapiens) (UniProt Q86U86); test: Inhibition of human partial length PBRM1 bromodomain 5 (S645 to D766 residues) expressed in Escherichia coli BL21 assessed as residual activity at 1 uM after 1 hr by qPCR method relative to control
Sequence of Protein polybromo-1 (Homo sapiens) (Q86U86 whole entry, the tested form may be a part): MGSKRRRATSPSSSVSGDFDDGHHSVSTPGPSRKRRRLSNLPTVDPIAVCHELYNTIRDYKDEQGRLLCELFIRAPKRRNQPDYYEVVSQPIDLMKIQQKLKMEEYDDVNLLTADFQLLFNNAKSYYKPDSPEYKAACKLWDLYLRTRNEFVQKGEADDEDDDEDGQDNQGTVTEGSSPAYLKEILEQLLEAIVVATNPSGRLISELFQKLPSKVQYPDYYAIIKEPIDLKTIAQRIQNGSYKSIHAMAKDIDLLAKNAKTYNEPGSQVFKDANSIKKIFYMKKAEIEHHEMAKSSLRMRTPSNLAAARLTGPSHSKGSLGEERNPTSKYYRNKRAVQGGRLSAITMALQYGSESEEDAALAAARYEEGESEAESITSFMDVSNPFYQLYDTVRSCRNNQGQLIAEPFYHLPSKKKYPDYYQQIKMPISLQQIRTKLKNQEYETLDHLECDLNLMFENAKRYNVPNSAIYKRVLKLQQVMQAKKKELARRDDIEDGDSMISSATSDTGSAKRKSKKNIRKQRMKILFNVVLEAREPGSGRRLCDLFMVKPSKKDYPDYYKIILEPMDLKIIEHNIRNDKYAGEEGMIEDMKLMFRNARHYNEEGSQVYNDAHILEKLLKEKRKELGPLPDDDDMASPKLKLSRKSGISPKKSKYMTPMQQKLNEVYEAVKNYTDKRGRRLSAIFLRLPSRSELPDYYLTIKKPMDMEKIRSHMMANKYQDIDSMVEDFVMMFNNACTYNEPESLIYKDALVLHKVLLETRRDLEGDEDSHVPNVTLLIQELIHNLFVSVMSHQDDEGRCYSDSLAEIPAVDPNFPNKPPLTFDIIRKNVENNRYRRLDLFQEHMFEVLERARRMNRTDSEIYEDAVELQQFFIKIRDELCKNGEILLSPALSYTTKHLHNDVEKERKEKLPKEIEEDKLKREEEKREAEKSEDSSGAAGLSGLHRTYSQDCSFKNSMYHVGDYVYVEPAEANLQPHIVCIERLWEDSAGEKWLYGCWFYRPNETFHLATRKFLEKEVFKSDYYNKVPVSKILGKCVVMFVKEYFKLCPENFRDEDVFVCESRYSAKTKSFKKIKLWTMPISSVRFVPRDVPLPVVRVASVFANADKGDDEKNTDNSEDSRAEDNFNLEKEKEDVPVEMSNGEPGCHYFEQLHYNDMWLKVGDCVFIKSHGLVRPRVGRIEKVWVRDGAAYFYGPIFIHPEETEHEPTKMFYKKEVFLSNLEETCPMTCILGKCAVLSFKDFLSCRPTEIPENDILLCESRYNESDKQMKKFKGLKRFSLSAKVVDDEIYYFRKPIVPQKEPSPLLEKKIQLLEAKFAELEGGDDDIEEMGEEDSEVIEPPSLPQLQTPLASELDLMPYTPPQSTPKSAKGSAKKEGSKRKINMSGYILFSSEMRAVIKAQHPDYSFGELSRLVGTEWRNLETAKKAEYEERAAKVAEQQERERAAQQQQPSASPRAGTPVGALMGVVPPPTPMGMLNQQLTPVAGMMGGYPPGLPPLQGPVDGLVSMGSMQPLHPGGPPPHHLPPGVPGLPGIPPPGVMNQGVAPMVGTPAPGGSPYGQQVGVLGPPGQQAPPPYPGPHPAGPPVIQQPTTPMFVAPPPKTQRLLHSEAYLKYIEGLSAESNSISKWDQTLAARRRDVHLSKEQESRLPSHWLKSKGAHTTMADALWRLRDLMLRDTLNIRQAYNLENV

[13] = target: Histone acetyltransferase KAT2A (Homo sapiens) (UniProt Q92830); test: Inhibition of human partial length GCN5L2 (E726 to K837 residues) expressed in Escherichia coli BL21 assessed as residual activity at 1 uM after 1 hr by qPCR method relative to control
[14] = target: Bromodomain adjacent to zinc finger domain protein 2A (Homo sapiens) (UniProt Q9UIF9); test: Inhibition of human partial length BAZ2A (M1792 to L1905 residues) expressed in Escherichia coli BL21 assessed as residual activity at 1 uM after 1 hr by qPCR method relative to control
[15] = target: Histone acetyltransferase p300 (Homo sapiens) (UniProt Q09472); test: Inhibition of human partial length EP300 (A1040 to G1161 residues) expressed in Escherichia coli BL21 assessed as residual activity at 1 uM after 1 hr by qPCR method relative to control
[16] = Half life in ICR (CD-1) mouse at 10 mg/kg, po; assay type: ADME, organism-based; conditions: in vivo

Work on `Cc1ccc([C@H](C)Nc2ccc3c(c2)N(C2CC2)[C@H](C)C(=O)N3C)c(C)c1` yielded an Activity [1] of 67%, an Activity [2] of 3.1% and an Activity [3] of 0.05%. The Cmax [4] was 0.869 µg/mL, the inhibition [5] was “Dose-dependent effect” and the inhibition [6] was “Active”. It also gave an Activity [7] of 77%, an Activity [8] of 96% and an IC50 [9] of 0.045 µM. For the same compound, the Activity [10] was 95%, the inhibition [11] was greater than 60% and the Activity [12] was 94%. The Activity [13] was 63%, the Activity [14] was 83% and the Activity [15] was 47%. It also gave a half-life [16] of 2.23 h.
